Results as given in patent publication US20230391772A1, “METHODS AND COMPOSITIONS FOR TARGETED PROTEIN DEGRADATION” (Ranok Therapeutics (Hangzhou) Co. Ltd., priority 2020, published 2023).

Legend:
HSP90a protein = target: T1, HSP90a protein (Homo sapiens, UniProt P07900); test: HSP90α-binding fluorescent polarization (FP) assay, BODIPY-labeled RNK04010 probe; details: FP competition with RNK04010 (BODIPY-labeled), 5 nM, 300 min at 25° C.
T1 construct: purchased BPS Bioscience 50298
Method in brief: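 Compounds (20 μM down to 5.2 nM, 2.5-fold steps) compete with a 5 nM fluorescent tracer for N-terminal HSP90a, measured by fluorescence polarization. With FITC-geldanamycin, plates sit 120 min at 25 °C. With BODIPY-RNK04010, they sit 300 min at 25 °C.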

[1] = tested on: MIA PaCa-2 human pancreatic carcinoma; test: MIA PaCa-2 CCK-8 proliferation assay; assay type: cell-based; details: Homo sapiens, MIA PaCa-2, 72 h, MIA PaCa-2 cells
Method in brief: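 Proliferation of mutant-KRAS(G12C) cells (2 copies in MIA PaCa-2, single copy in NCI-H358/NCI-H23) measured with CCK-8 after treatment across 20 μM–1.02 nM; inhibition expressed relative to vehicle-treated wells after subtracting no-cell background.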

KRAS(G12C) = KRAS(G12C) (Homo sapiens, UniProt P01116, G12C); test: KRAS(G12C)/SOS1 homogeneous time-resolved fluorescence (HTRF) assay; design: purchased Cisbio 63ADK000CB16PEG; details: absence of GTP, 4° C. for 3 hr, read-out: KRAS (G12C) binding
KRAS(G12C), sequence (P01116 1-188 isoform P01116-2 G12C): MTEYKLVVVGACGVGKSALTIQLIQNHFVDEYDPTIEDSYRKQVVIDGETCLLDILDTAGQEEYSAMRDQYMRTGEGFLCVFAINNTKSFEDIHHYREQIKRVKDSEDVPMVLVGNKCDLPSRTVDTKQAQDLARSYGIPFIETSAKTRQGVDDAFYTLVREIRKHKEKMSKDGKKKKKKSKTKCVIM
Method in brief: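 Three-hour incubation at 4 °C of 3-fold compound dilutions (lowest 1.02 nM) with KRAS(G12C), SOS1 and detection reagents, GTP absent. Disruption of the KRAS(G12C)/SOS1 complex detected by time-resolved fluorescence.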

Row | SMILES | IC50 (HSP90a protein) [nM] | EC50 [1] [nM] | IC50 (KRAS(G12C)) [nM]
1 | C=CC(=O)N1CCN(c2nc(OCCN3CCC4(CC3)CCN(C(=O)C3CCN(Cc5ccc(-n6c(C(=O)NCC(F)(F)F)nnc6-c6cc(C(C)C)c(O)cc6O)cc5)CC3)CC4)nc3c2CCN(c2cccc4cccc(Cl)c24)C3)C[C@@H]1CC#N [Compound 209, (S)-4-(4-((4-(9-(2-((4-(4-acryloyl-3-(cyanomethyl)piperazin-1-yl)-7-(8-chloronaphthalen-1-yl)-5,6,7,8-tetrahydropyrido[3,4-d]pyrimidin-2-yl)oxy)ethyl)-3,9-diazaspiro[5.5]undecane-3-carbonyl)piperidin-1-yl)methyl)phenyl)-5-(2,4-dihydroxy-5-isopropylphenyl)-N-(2,2,2-trifluoroethyl)-4H-1,2,4-triazole-3-carboxamide] | < 100 | < 100 | < 100
2 | C=CC(=O)N1CCN(c2nc(OCC3CCC(COCC(=O)N4CCN(Cc5ccc(-n6c(O)nnc6-c6cc(CC)c(O)cc6O)cc5)CC4)N3)nc3c2CCN(c2cccc4cccc(Cl)c24)C3)C[C@@H]1CC#N (stereo partly drawn) [Compound 297, 2-((2S)-1-acryloyl-4-(7-(8-chloronaphthalen-1-yl)-2-((5-((2-(4-(4-(3-(5-ethyl-2,4-dihydroxyphenyl)-5-hydroxy-4H-1,2,4-triazol-4-yl)benzyl)piperazin-1-yl)-2-oxoethoxy)methyl)pyrrolidin-2-yl)methoxy)-5,6,7,8-tetrahydropyrido[3,4-d]pyrimidin-4-yl)piperazin-2-yl)acetonitrile] | < 100 | > 1000 | > 1000
3 | C=CC(=O)N1CCN(c2nc(OCCN3CCC4(CC3)CCN(C(=O)C3CCN(Cc5ccc(-n6c(O)nnc6-c6cc(C(C)C)c(O)cc6O)cc5)CC3)CC4)nc3c2CCN(c2cccc4cccc(Cl)c24)C3)C[C@@H]1CC#N [Compound 218, (S)-2-(1-acryloyl-4-(7-(8-chloronaphthalen-1-yl)-2-(2-(9-(1-(4-(3-(2,4-dihydroxy-5-isopropylphenyl)-5-hydroxy-4H-1,2,4-triazol-4-yl)benzyl)piperidine-4-carbonyl)-3,9-diazaspiro[5.5]undecan-3-yl)ethoxy)-5,6,7,8-tetrahydropyrido[3,4-d]pyrimidin-4-yl)piperazin-2-yl)acetonitrile] | < 100 | > 1000 | < 100
4 | C=CC(=O)N1CCN(c2nc(OCCN3CCC4(CC3)CCN(Cc3cc(C(C)C)c(O)cc3O)CC4)nc3c2CCN(c2cccc4cccc(Cl)c24)C3)C[C@@H]1CC#N [Compound 217, (S)-2-(1-acryloyl-4-(7-(8-chloronaphthalen-1-yl)-2-(2-(9-(2,4-dihydroxy-5-isopropylbenzyl)-3,9-diazaspiro[5.5]undecan-3-yl)ethoxy)-5,6,7,8-tetrahydropyrido[3,4-d]pyrimidin-4-yl)piperazin-2-yl)acetonitrile] | 100 to 1000 | > 1000 | < 100
5 | C=CC(=O)N1CCN(c2nc(OC[C@@H]3C[C@H](C(=O)N4CCN(CCNC(=O)c5nnc(-c6cc(C(C)C)c(O)cc6O)n5-c5ccccc5)CC4)CN3C)nc3c2CCN(c2cccc4cccc(Cl)c24)C3)C[C@@H]1CC#N [Compound 343, N-(2-{4-[(3S,5S)-5-({[7-(8-chloronaphthalen-1-yl)-4-[(3S)-3-(cyanomethyl)-4-(pr-op-2-enoyl)piperazin-1-yl]-5H,6H,8H-pyrido[3,4-d]pyrimidin-2-yl]oxy}methyl)-1-methylpyrrolidine-3-carbonyl]piperazin-1-yl}ethyl)-5-(2,4-dihydroxy-5-isopropylphenyl)-4-phenyl-1,2,4-triazole-3-carboxamide] | < 100 | 100 to 1000 | < 100
6 | C=CC(=O)N1CCN(c2nc(OCC3CCC(CN4CCC(Cc5ccc(-n6c(C(=O)NCC(F)(F)F)nnc6-c6cc(C(C)C)c(O)cc6O)cc5)CC4)N3)nc3c2CCN(c2cccc4cccc(Cl)c24)C3)C[C@@H]1CC#N (stereo partly drawn) [Compound 298, 4-(4-((1-((5-(((4-((S)-4-acryloyl-3-(cyanomethyl)piperazin-1-yl)-7-(8-chloronaphthalen-1-yl)-5,6,7,8-tetrahydropyrido[3,4-d]pyrimidin-2-yl)oxy)methyl)pyrrolidin-2-yl)methyl)piperidin-4-yl)methyl)phenyl)-5-(2,4-dihydroxy-5-isopropylphenyl)-N-(2,2,2-trifluoroethyl)-4H-1,2,4-triazole-3-carboxamide] | < 100 | 100 to 1000 | > 1000

More lines, now with the values ahead:

Row | IC50 (HSP90a protein) [nM] | EC50 [1] [nM] | IC50 (KRAS(G12C)) [nM] | SMILES
7 | < 100 | 100 to 1000 | > 1000 | C=CC(=O)N1CCN(c2nc(OCC3CN(C(=O)C4CCN(Cc5ccc(-n6c(O)nnc6-c6cc(C(C)C)c(O)cc6O)cc5)CC4)C3)nc3c2CCN(c2cccc4cccc(Cl)c24)C3)C[C@@H]1CC#N [Compound 188, (S)-2-(1-acryloyl-4-(7-(8-chloronaphthalen-1-yl)-2-((1-(1-(4-(3-(2,4-dihydroxy-5-isopropylphenyl)-5-hydroxy-4H-1,2,4-triazol-4-yl)benzyl)piperidine-4-carbonyl)azetidin-3-yl)methoxy)-5,6,7,8-tetrahydropyrido[3,4-d]pyrimidin-4-yl)piperazin-2-yl)acetonitrile, trifluoroacetic acid]
8 | < 100 | 100 to 1000 | 100 to 1000 | C=CC(=O)N1CCN(c2nc(OC[C@@H]3C[C@H](N4CCC(C(=O)NCCc5ccc(CN6CCC(Cc7ccc(-n8c(C(=O)NCC(F)(F)F)nnc8-c8cc(C(C)C)c(O)cc8O)cc7)CC6)cc5)CC4)CN3C)nc3c2CCN(c2cccc4cccc(Cl)c24)C3)C[C@@H]1CC#N [Compound 330, 1-[(3S,5S)-5-({[7-(8-chloronaphthalen-1-yl)-4-[(3S)-3-(cyanomethyl)-4-(prop-2-enoyl)piperazin-1-yl]-5H,6H,8H-pyrido[3,4-d]pyrimidin-2-yl]oxy}methyl)-1-methylpyrrolidin-3-yl]-N-[2-(4-{[4-({4-[3-(2,4-dihydroxy-5-isopropylphenyl)-5-[(2,2,2-trifluoroethyl)carbamoyl]-1,2,4-triazol-4-yl]phenyl}methyl)piperidin-1-yl]methyl}phenyl)ethyl]piperidine-4-carboxamide]
9 | < 100 | 100 to 1000 | 100 to 1000 | C=CC(=O)N1CCN(c2nc(OC[C@@H]3C[C@@H](NCc4ccc(-n5c(O)nnc5-c5cc(C(C)C)c(O)cc5O)cc4)CN3C)nc3c2CCN(c2cccc4cccc(Cl)c24)C3)C[C@@H]1CC#N [Compound 215, 2-((S)-1-acryloyl-4-(7-(8-chloronaphthalen-1-yl)-2-(((2S,4R)-4-((4-(3-(2,4-dihydroxy-5-isopropylphenyl)-5-hydroxy-4H-1,2,4-triazol-4-yl)benzyl)amino)-1-methylpyrrolidin-2-yl)methoxy)-5,6,7,8-tetrahydropyrido[3,4-d]pyrimidin-4-yl)piperazin-2-yl)acetonitrile]
10 | < 100 | > 1000 | < 100 | C=CC(=O)N1CCN(c2nc(OC[C@@H]3C[C@H](NC(=O)C4CCN(C(=O)c5ccc(-n6c(O)nnc6-c6cc(C(C)C)c(O)cc6O)cc5)CC4)CN3C)nc3c2CCN(c2cccc4cccc(Cl)c24)C3)C[C@@H]1CC#N [Compound 315, N-[(3S,5S)-5-({[7-(8-chloronaphthalen-1-yl)-4-[(3S)-3-(cyanomethyl)-4-(prop-2-enoyl)piperazin-1-yl]-5H,6H,8H-pyrido[3,4-d]pyrimidin-2-yl]oxy}methyl)-1-methylpyrrolidin-3-yl]-1-{4-[3-(2,4-dihydroxy-5-isopropylphenyl)-5-hydroxy-1,2,4-triazol-4-yl]benzoyl}piperidine-4-carboxamide]
